These results are taken from patent US7442693B2, “Diazepine compounds as ligands of the melanocortin 1 and/or 4 receptors” (SmithKline Beecham Corporation, priority 2004, dated 2008).

The target in one assay is T1, human MC4R (Homo sapiens, UniProt P32245).
T1 construct: expressed in transfected cells; host or cells: CHO-6xCRE-luc+ reporter cell line
The experiment in a line: CHO-6xCRE-luc+ reporter gene assay, MC4R agonist activity. It is filed as cell-based. Particulars: for Emax: 4 h, percentage of the fold stimulation in the NDP-αMSH control (1×10^−7 M), human MC4R, read-out: % Max MSH; for EC50: CHO-6xCRE-luc+ cells expressing human MC4R, 4 h at 37° C., luciferase activity. How it is done:
(§1) CHO-6×CRE-luc^+ reporter cell lines expressing human MC1R, MC3R, MC4R, and MC5R (GenBank accession numbers X65634, L06155, S77415 and U08353) and the CHO host reporter gene cell line were propagated in complete medium in T225 flasks. Forty-eight hours prior to assay, cells were harvested with 2 ml of 0.05% trypsin, washed with complete medium and plated at a concentration of 4000 cells/well in complete medium. Sixteen hours prior to the assay, the medium was removed from the cells and replaced with 90 μl/well of serum-free DMEM/F12. At the time of the assay the compounds were added in a 10 μl volume and plates were incubated for 4 h at 37° C. in a cell culture incubator. The medium was aspirated followed by the addition of 50 μl of a 1:1 mixture of LucLite™ and dPBS containing 1 mM CaCl2 and 1 mM MgCl2. The plates were then sealed and subjected to dark adaptation at room temperature for 10 min before luciferase activity was quantitated on a TopCount™ microplate scintillation counter (Packard) using 3 s/well count time. The NDP-αMSH and 154N-5 concentration-response curve data were expressed as a percentage of the fold stimulation in the NDP-αMSH control for each receptor subtype. The control value is the average of duplicate wells treated with 1×10^−7 M NDP-αMSH.
On the technique in general: Reporter assays use an easily measured gene product as a stand-in for the process of interest.

The next assay concerns the target T2, human MC1R (Homo sapiens, UniProt Q01726).
T2 construct: expressed in transfected cells; host or cells: CHO-6xCRE-luc+ reporter cell line
As to the kind of experiment: CHO-6xCRE-luc+ reporter gene assay, MC1R agonist activity. The settings on record: for Emax: 4 h, read-out: % of MSH. It is filed as cell-based. How it is done: as §1

The mark [1] stands for this setting: percentage of the fold stimulation in the NDP-αMSH control (1×10^−7 M), human MC1R.
The mark [2] stands for this setting: CHO-6xCRE-luc+ cells expressing human MC1R, 4 h at 37° C., luciferase activity.

T1 sequence (P32245 whole entry): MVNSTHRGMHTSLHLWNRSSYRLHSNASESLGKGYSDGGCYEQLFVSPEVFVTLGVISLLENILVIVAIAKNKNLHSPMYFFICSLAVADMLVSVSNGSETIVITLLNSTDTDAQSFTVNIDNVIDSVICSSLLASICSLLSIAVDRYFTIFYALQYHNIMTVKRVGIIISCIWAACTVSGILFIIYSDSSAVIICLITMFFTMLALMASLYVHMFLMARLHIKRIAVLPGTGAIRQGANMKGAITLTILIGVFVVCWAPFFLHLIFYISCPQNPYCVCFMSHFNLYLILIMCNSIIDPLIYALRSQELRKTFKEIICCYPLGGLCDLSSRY
T2 sequence (Q01726 whole entry): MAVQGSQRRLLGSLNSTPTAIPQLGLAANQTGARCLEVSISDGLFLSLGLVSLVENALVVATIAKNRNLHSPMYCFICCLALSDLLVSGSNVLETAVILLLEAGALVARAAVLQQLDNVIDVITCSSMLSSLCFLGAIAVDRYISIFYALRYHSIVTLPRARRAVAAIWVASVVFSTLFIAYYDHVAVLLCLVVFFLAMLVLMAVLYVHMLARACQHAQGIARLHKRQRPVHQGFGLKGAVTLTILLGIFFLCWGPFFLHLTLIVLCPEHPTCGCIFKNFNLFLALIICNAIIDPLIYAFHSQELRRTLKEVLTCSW

Broadly, the EC50 is the concentration giving half of the maximal effect. For `CC(C)N(C(=O)CN1C=CN(c2ccccc2)C(=O)C(Cc2n[nH]c3ccccc23)C1=O)c1ccc(I)cc1` (stereo not shown) [Example 10], the Emax is 49% at human MC4R and 84% on human MC1R (setting [1]). Also, the EC50 at human MC4R is 0.398 µM; on human MC1R (setting [2]), 0.0724 µM.
For the compound `CC(C)N(C(=O)CN1C=CN(c2ccccc2)C(=O)C(Cc2n[nH]c3cc(F)ccc23)C1=O)c1ccccc1` (single isomer, unassigned) [Example 21], the Emax at human MC1R (setting [1]) was 79%. This compound also had an EC50 on human MC1R (setting [2]) of 0.0355 µM.
For `CC(C)c1ccc(N(C(=O)CN2C=CN(c3ccccc3)C(=O)C(Cc3n[nH]c4ccccc34)C2=O)C(C)C)cc1` (stereo not shown) [Example 31], the Emax on human MC1R (setting [1]) was found to be 40%. This compound had a concentration for a half-maximal effect (EC50) at human MC1R (setting [2]) of 0.224 µM.
For `CCCN(C(=O)CN1C=CN(c2ccccc2)C(=O)C(Cc2n[nH]c3ccccc23)C1=O)c1ccc(OC)cc1` (stereo not shown) [Example 23], the Emax at human MC1R (setting [1]) stood at 72%. Further, at human MC1R (setting [2]), the concentration for a half-maximal effect (EC50) was 0.0513 µM.
Consider `COc1ccc(N(C(=O)CN2C=CN(c3ccccc3)C(=O)C(Cn3cnc4ccccc43)C2=O)C(C)C)cc1` (stereo not shown) [Example 29], for which the Emax at human MC1R (setting [1]) came to 103%. For the same compound, the EC50 at human MC1R (setting [2]) was 0.182 µM.
Turning to `COc1ccc(N(C(=O)CN2C=CN(c3ccccc3)C(=O)C(Cc3n[nH]c4ccccc34)C2=O)C(C)C)cc1` (single isomer, unassigned) [Example 2], the Emax on human MC4R is 51%; at human MC1R (setting [1]), 85%. In addition, the EC50 on human MC4R is 0.282 µM; at human MC1R (setting [2]) it was 0.0186 µM.
In the same order, the values of `COc1ccc(N(C(=O)CN2C=CN(c3ccccc3)C(=O)C(Cc3n[nH]c4ccccc34)C2=O)C(C)C)cc1` (stereo not shown) [Example 1] are 56%, 68%, 0.417 µM and 0.0295 µM.
For the compound `CC(C)Oc1ccc(N(C(=O)CN2C=CN(c3ccccc3)C(=O)C(Cc3n[nH]c4ccccc34)C2=O)C(C)C)cc1` (stereo not shown) [Example 26], the Emax at human MC1R (setting [1]) was determined as 41%. The compound also had an EC50 on human MC1R (setting [2]) of 0.0741 µM.
Take `CC(C)N(C(=O)CN1C=CN(c2ccccc2)C(=O)C(Cc2n[nH]c3ccccc23)C1=O)c1ccc(C(F)(F)F)cc1` (stereo not shown) [Example 11]: the Emax at human MC4R was determined as 55%; on human MC1R (setting [1]) it was 68%. For the same compound, the results for the EC50 on human MC4R and on human MC1R (setting [2]) were 0.417 µM and 0.145 µM, respectively.
In the case of `COc1ccc(N(C(=O)CN2C=CN(c3ccccc3)C(=O)C(Cc3n[nH]c4c3CCCC4)C2=O)C(C)C)cc1` (stereo not shown) [Example 27], the Emax at human MC1R (setting [1]) came out at 95%. For the same compound, it took 0.129 µM to reach a half-maximal effect on human MC1R (setting [2]) (EC50).
For orientation: pEC50 means the negative decadic logarithm of the EC50, by convention in mol/L. Turning to `O=C1C(Cc2n[nH]c3ccccc23)C(=O)N(c2ccccc2)C=CN1CC(=O)N1CCCCc2ccccc21` (single isomer, unassigned) [Example 24], the negative-log EC50 (pEC50) at human MC1R (setting [2]) came to 8.80. Further, the “% of MSH” value on human MC1R (setting [1]) stood at 86%.
Regarding `CC(C)N(C(=O)CN1C=CN(c2ccccc2)C(=O)C(Cc2n[nH]c3ccccc23)C1=O)c1ccc(Cl)cc1` (stereo not shown) [Example 3], the values for the Emax at human MC4R and on human MC1R (setting [1]) were 58% and 73%, respectively. The EC50 on human MC4R is 0.0427 µM; on human MC1R (setting [2]) it was 0.112 µM.
`CC(C)N(C(=O)CN1C=CN(c2ccccc2)C(=O)C(Cc2n[nH]c3ccccc23)C1=O)c1ccc(O)cc1` (stereo not shown) [Example 28]: at human MC1R (setting [1]), the Emax stood at 79%. On human MC1R (setting [2]), this compound showed an EC50 of 0.158 µM.
As to `COC1(Cc2n[nH]c3ccccc23)C(=O)N(CC(=O)N(c2ccc(F)cc2)C(C)C)C=CN(c2ccccc2)C1=O` (stereo not shown) [Example 5, 2-[2,4-dioxo-3-(1H-indazol-3-ylmethylene)-3-methoxy-5-phenyl-2,3,4,5-tetrahydro-1H-1,5-diazepin-1-yl]-N-(4-fluorophenyl) N-isopropylacetamide], on human MC4R, the Emax was 78% and it took 0.151 µM to reach a half-maximal effect (EC50).
For `CC(C)N(C(=O)CN1C=CN(c2ccccc2)C(=O)C(Cc2n[nH]c3ccccc23)C1=O)c1ccc(F)cc1` (stereo not shown) [Example 22], on human MC1R (setting [1]), the Emax is 54%. Also, on human MC1R (setting [2]), the EC50 is 0.0501 µM.
As to `O=C1C(Cc2n[nH]c3cc(F)ccc23)C(=O)N(c2ccccc2)C=CN1CC(=O)N1CCCCc2ccccc21` (stereo not shown) [Example 15], the Emax at human MC1R (setting [1]) came to 61%. For the same compound, the EC50 at human MC1R (setting [2]) is 0.00158 µM.
As for `COc1cccc2c1CCCCN2C(=O)CN1C=CN(c2ccccc2)C(=O)C(Cc2n[nH]c3ccccc23)C1=O` (stereo not shown) [Example 7], the Emax at human MC4R amounted to 77%; at human MC1R (setting [1]) it was 50%. Also, the EC50 on human MC4R was 0.347 µM; on human MC1R (setting [2]), 0.0407 µM.
With `CC(C)N(C(=O)CN1C=CN(c2ccccc2)C(=O)C(Cc2n[nH]c3ccccc23)C1=O)c1ccccc1` (stereo not shown) [Example 32], the Emax on human MC1R (setting [1]) was found to be 54%. This compound gave a half-maximal effective concentration (EC50) on human MC1R (setting [2]) of 0.295 µM.
As to `CC(C)N(C(=O)CN1C=CN(c2ccccc2)C(=O)C(Cc2n[nH]c3cc(F)ccc23)C1=O)c1ccc(F)cc1` (stereo not shown) [Example 19], the Emax at human MC1R (setting [1]) was found to be 53%. Moreover, the half-maximal effective concentration (EC50) on human MC1R (setting [2]) is 0.0141 µM.
As for `O=C1C(Cc2n[nH]c3ccccc23)C(=O)N(c2ccccc2)C=CN1CC(=O)N1CCCCc2ccccc21` (stereo not shown) [Example 16], the Emax on human MC1R (setting [1]) came to 61%. Moreover, the EC50 on human MC1R (setting [2]) was 0.00158 µM.
For the compound `COc1ccc(N(C(=O)CN2C=CN(c3ccccc3)C(=O)C(Cn3c(=O)[nH]c4ccccc43)C2=O)C(C)C)cc1` (stereo not shown) [Example 12], the Emax on human MC4R was 56%; on human MC1R (setting [1]) it was 61%. The half-maximal effective concentration (EC50) was 0.437 µM on human MC4R and 0.0195 µM at human MC1R (setting [2]).
`Cc1cc(OC(F)(F)F)ccc1N(C(=O)CN1C=CN(c2ccccc2)C(=O)C(Cc2n[nH]c3ccccc23)C1=O)C(C)C` (stereo not shown) [Example 4]: the Emax stood at 52% at human MC4R and 74% at human MC1R (setting [1]). Also, the 50% effective concentration (EC50) at human MC4R is 0.0447 µM; at human MC1R (setting [2]), 0.0708 µM.
For the compound `CCOc1ccc(N(C(=O)CN2C=CN(c3ccccc3)C(=O)C(Cc3n[nH]c4ccccc34)C2=O)C(C)C)cc1` (stereo not shown) [Example 13], the Emax on human MC4R was 65%; on human MC1R (setting [1]), 64%. In addition, the EC50 is 0.513 µM at human MC4R and 0.11 µM at human MC1R (setting [2]).
In the case of `CCN(C(=O)CN1C=CN(c2ccccc2)C(=O)C(Cc2n[nH]c3ccccc23)C1=O)c1ccc(OC)cc1` (stereo not shown) [Example 25], the Emax at human MC1R (setting [1]) turned out to be 72%. The compound also had a concentration giving a half-maximal response (EC50) at human MC1R (setting [2]) of 0.0646 µM.
As for `CCc1ccc(N(C(=O)CN2C=CN(c3ccccc3)C(=O)C(Cc3n[nH]c4ccccc34)C2=O)C(C)C)cc1` (stereo not shown) [Example 8], the Emax was 53% on human MC4R and 72% at human MC1R (setting [1]). The figures for the EC50 at human MC4R and at human MC1R (setting [2]) were 0.347 µM and 0.148 µM, respectively.
Consider `CC(C)N(C(=O)CN1C=CN(c2ccccc2)C(=O)C(Cc2n[nH]c3cc(F)ccc23)C1=O)c1ccccc1` (stereo not shown) [Example 20], for which the Emax on human MC1R (setting [1]) was 51%. Further, the EC50 on human MC1R (setting [2]) was 0.191 µM.
For `COc1ccc(N(C(=O)CN2C=CN(c3ccccc3)C(=O)C(Cc3n[nH]c4cc(F)ccc34)C2=O)C(C)C)cc1` (stereo not shown) [Example 17], at human MC1R (setting [1]), the Emax came to 83%. Also, the concentration for a half-maximal effect (EC50) on human MC1R (setting [2]) is 0.00158 µM.
For `CC(C)N(C(=O)CN1C=CN(c2ccccc2)C(=O)C(Cc2n[nH]c3ccccc23)C1=O)c1ccc(OC(F)(F)F)cc1` (stereo not shown) [Example 6], the Emax was determined as 51% at human MC4R and 91% on human MC1R (setting [1]). For the same compound, the EC50 was 0.204 µM at human MC4R and 0.0224 µM on human MC1R (setting [2]).
Take `O=C1C(Cc2n[nH]c3ccccc23)C(=O)N(c2ccccc2)C=CN1CC(=O)N1CCCCc2ccccc21` (single isomer, unassigned) [Example 18]: the Emax at human MC1R (setting [1]) is 87%. A half-maximal effect at human MC1R (setting [2]) (EC50) was put at 0.00158 µM.
As to `CCCc1ccc(N(C(=O)CN2C=CN(c3ccccc3)C(=O)C(Cc3n[nH]c4ccccc34)C2=O)C(C)C)cc1` (stereo not shown) [Example 9], the values for the Emax at human MC4R and at human MC1R (setting [1]) were 65% and 37%, respectively. The concentration for a half-maximal effect (EC50) was 0.389 µM at human MC4R and 0.2 µM on human MC1R (setting [2]).
In the case of `CC1CCc2ccccc2N1C(=O)CN1C=CN(c2ccccc2)C(=O)C(Cc2n[nH]c3ccccc23)C1=O` (stereo not shown) [Example 30], the Emax on human MC1R (setting [1]) was 69%. This compound also showed an EC50 on human MC1R (setting [2]) of 0.204 µM.
In the same order, the values of `Cc1ccc(N(C(=O)CN2C=CN(c3ccccc3)C(=O)C(Cc3n[nH]c4ccccc34)C2=O)C(C)C)cc1` (stereo not shown) [Example 14] are 69% and 0.269 µM.
